Laboratory results published in PubChem BioAssay AID1745844 (Carcinogenic Potency Database (CPDB), 2022).
Several values for one entry are separate records, joined by “and”; a condition that tells them apart may be missing. Identical values can stand only once. Activity calls are given as the source filed them. The rule behind the calls is not given here.

Test system: rodent lifetime carcinogenesis bioassay, tumor incidence TD50
Assay: chronic cancer bioassays in animals – CPDB, compiled studies (AID 1745844)

O=C(Nc1ccc([N+](=O)[O-])cc1Cl)c1cc(Cl)ccc1O
carcinogen call (mouse, strain B6C3F1, females, in feed, site: any site (literature study), lesion: several types, types named in the paper, dosed 78 weeks, study length 91 weeks): negative (inactive)
TD50 (mouse, strain B6C3F1, males, in feed, site: any site (literature study), lesion: several types, types named in the paper, dosed 78 weeks, study length 91 weeks): 175 mg/kg/day
TD50 (rat, strain Osborne-Mendel, females, in feed, site: any site (literature study), lesion: several types, types named in the paper, dosed 78 weeks, study length 110 weeks): 2070 mg/kg/day
TD50 (rat, strain Osborne-Mendel, females, in feed, site: liver, lesion: hepatocellular adenoma + hepatocellular carcinoma + neoplastic nodule, dosed 78 weeks, study length 110 weeks): 13300 mg/kg/day
TD50 (rat, strain Osborne-Mendel, females, in feed, site: thyroid gland, lesion: c-cell adenoma + c-cell carcinoma, dosed 78 weeks, study length 110 weeks): 6670 mg/kg/day
TD50 (rat, strain Osborne-Mendel, females, in feed, site: uterus, lesion: endometrial stromal polyp, dosed 78 weeks, study length 110 weeks): 5060 mg/kg/day (inactive)
carcinogen call (rat, strain Osborne-Mendel, males, in feed, site: any site (literature study), lesion: several types, types named in the paper, dosed 78 weeks, study length 110 weeks): negative (inactive)

Nc1ccc2c(c1)C(=O)c1ccccc1C2=O
TD50 (mouse, strain B6C3F1, females, in feed, site: all sites + liver, lesion: lymphoma + hepatocellular carcinoma, dosed 79 weeks, study length 94 weeks): 1490 mg/kg/day
TD50 (mouse, strain B6C3F1, females, in feed, site: all sites, lesion: lymphoma, dosed 79 weeks, study length 94 weeks): 3160 mg/kg/day
TD50 (mouse, strain B6C3F1, females, in feed, site: any site (literature study), lesion: several types, types named in the paper, dosed 79 weeks, study length 94 weeks): 1620 mg/kg/day
TD50 (mouse, strain B6C3F1, females, in feed, site: liver, lesion: hepatocellular adenoma + hepatocellular carcinoma + neoplastic nodule, dosed 79 weeks, study length 94 weeks): 2820 mg/kg/day
TD50 (mouse, strain B6C3F1, females, in feed, site: liver, lesion: hepatocellular carcinoma, dosed 79 weeks, study length 94 weeks): 2820 mg/kg/day
TD50 (mouse, strain B6C3F1, females, in feed, site: lung, lesion: alveolar/bronchiolar adenoma + alveolar/bronchiolar carcinoma, dosed 79 weeks, study length 94 weeks): 33400 mg/kg/day
TD50 (mouse, strain B6C3F1, males, in feed, site: any site (literature study), lesion: several types, types named in the paper, dosed 79 weeks, study length 93 weeks): 952 mg/kg/day
TD50 (mouse, strain B6C3F1, males, in feed, site: liver, lesion: hepatocellular adenoma + hepatocellular carcinoma + neoplastic nodule, dosed 79 weeks, study length 93 weeks): 798 mg/kg/day
TD50 (mouse, strain B6C3F1, males, in feed, site: liver, lesion: hepatocellular adenoma + hepatocellular carcinoma, dosed 79 weeks, study length 93 weeks): 798 mg/kg/day
TD50 (mouse, strain B6C3F1, males, in feed, site: liver, lesion: hepatocellular carcinoma, dosed 79 weeks, study length 93 weeks): 755 mg/kg/day
TD50 (mouse, strain B6C3F1, males, in feed, site: lung, lesion: alveolar/bronchiolar adenoma + alveolar/bronchiolar carcinoma, dosed 79 weeks, study length 93 weeks): 19400 mg/kg/day
TD50 (rat, strain Fischer 344, females, in feed, site: any site (literature study), lesion: several types, types named in the paper, dosed 78 weeks, study length 109 weeks): 124 mg/kg/day (inactive)
TD50 (rat, strain Fischer 344, males, in feed, site: any site (literature study), lesion: several types, types named in the paper, dosed 78 weeks, study length 106 weeks): 759 mg/kg/day
TD50 (rat, strain Fischer 344, males, in feed, site: liver, lesion: hepatocellular adenoma + hepatocellular carcinoma + neoplastic nodule, dosed 78 weeks, study length 106 weeks): 101 mg/kg/day
TD50 (rat, strain Fischer 344, males, in feed, site: liver, lesion: hepatocellular carcinoma + neoplastic nodule, dosed 78 weeks, study length 106 weeks): 101 mg/kg/day
TD50 (rat, strain Fischer 344, males, in feed, site: liver, lesion: hepatocellular carcinoma, dosed 78 weeks, study length 106 weeks): 268 mg/kg/day

CN(N=O)C(=O)Nc1nc2ccccc2s1
TD50 (rat, strain Wistar, both sexes, by gavage, site: forestomach, lesion: papilloma, dosed 51 weeks, study length 58 weeks): 3.75 mg/kg/day
TD50 (rat, strain Wistar, both sexes, by gavage, site: forestomach, lesion: several types, types named in the paper, dosed 51 weeks, study length 58 weeks): 1.13 mg/kg/day
TD50 (rat, strain Wistar, both sexes, by gavage, site: forestomach, lesion: squamous-cell carcinoma, dosed 51 weeks, study length 58 weeks): 1.48 mg/kg/day
TD50 (rat, strain Wistar, both sexes, by gavage, site: liver, lesion: several types, types named in the paper, dosed 51 weeks, study length 58 weeks): 11.3 mg/kg/day

CC1CN1P(=O)(N1CC1C)N1CC1C (centres undefined)
TD50 (rat, strain Sherman, males, by gavage, site: all sites, lesion: lymphatic leukemia, dosed 60 weeks, study length 60 weeks): 4.46 mg/kg/day

C/C=C1/C[C@@H](C)[C@@](C)(O)C(=O)OC/C2=C/CN(C)CC[C@@H](OC1=O)C2=O
TD50 (rat, strain ACI, males, i.p., site: liver, lesion: liver-cell adenoma, dosed 56 weeks, study length 92 weeks): 1.7 mg/kg/day

Nc1nnc(-c2ccc([N+](=O)[O-])o2)o1
TD50 (rat, strain Sprague-Dawley, females, in feed, site: any site (literature study), lesion: several types, types named in the paper, dosed 46 weeks, study length 66 weeks): 2.74 mg/kg/day
TD50 (rat, strain Sprague-Dawley, females, in feed, site: forestomach, lesion: squamous-cell papilloma, dosed 46 weeks, study length 66 weeks): 37 mg/kg/day
TD50 (rat, strain Sprague-Dawley, females, in feed, site: kidney/pelvis, lesion: transitional-cell carcinoma, dosed 46 weeks, study length 66 weeks): 45.2 mg/kg/day
TD50 (rat, strain Sprague-Dawley, females, in feed, site: lung, lesion: alveolar-cell carcinoma, dosed 46 weeks, study length 66 weeks): 242 mg/kg/day
TD50 (rat, strain Sprague-Dawley, females, in feed, site: mammary gland, lesion: adenocarcinoma, dosed 46 weeks, study length 66 weeks): 7.98 mg/kg/day
TD50 (rat, strain Sprague-Dawley, females, in feed, site: mammary gland, lesion: several types, types named in the paper, dosed 46 weeks, study length 66 weeks): 3.67 mg/kg/day

Cc1ccccc1N
TD50 (mouse, strain B6C3F1, females, in feed, site: any site (literature study), lesion: several types, types named in the paper, dosed 102 weeks, study length 102 weeks): 1350 mg/kg/day
TD50 (mouse, strain B6C3F1, females, in feed, site: liver, lesion: hepatocellular adenoma + hepatocellular carcinoma + neoplastic nodule, dosed 102 weeks, study length 102 weeks): 754 mg/kg/day
TD50 (mouse, strain B6C3F1, females, in feed, site: liver, lesion: hepatocellular adenoma + hepatocellular carcinoma, dosed 102 weeks, study length 102 weeks): 754 mg/kg/day
TD50 (mouse, strain B6C3F1, females, in feed, site: liver, lesion: hepatocellular carcinoma, dosed 102 weeks, study length 102 weeks): 1520 mg/kg/day
TD50 (mouse, strain B6C3F1, males, in feed, site: all sites, lesion: hemangioma + hemangiosarcoma, dosed 102 weeks, study length 102 weeks): 926 mg/kg/day
TD50 (mouse, strain B6C3F1, males, in feed, site: all sites, lesion: hemangiosarcoma, dosed 102 weeks, study length 102 weeks): 1220 mg/kg/day
TD50 (mouse, strain B6C3F1, males, in feed, site: liver, lesion: hepatocellular adenoma + hepatocellular carcinoma + neoplastic nodule, dosed 102 weeks, study length 102 weeks): 12700 mg/kg/day
TD50 (mouse, strain CD-1 HaM/ICR, females, in feed, site: all sites, lesion: all vascular tumors, dosed 68 weeks, study length 90 weeks): 1240 mg/kg/day
TD50 (mouse, strain CD-1 HaM/ICR, females, in feed, site: any site (literature study), lesion: several types, types named in the paper, dosed 68 weeks, study length 90 weeks): 699 mg/kg/day
TD50 (mouse, strain CD-1 HaM/ICR, females, in feed, site: liver, lesion: several types, types named in the paper, dosed 68 weeks, study length 90 weeks): 1650 mg/kg/day (inactive)
carcinogen call (mouse, strain CD-1 HaM/ICR, females, in feed, site: lung, lesion: several types, types named in the paper, dosed 68 weeks, study length 90 weeks): negative (inactive)
TD50 (mouse, strain CD-1 HaM/ICR, males, in feed, site: all sites, lesion: all vascular tumors, dosed 68 weeks, study length 90 weeks): 646 mg/kg/day and 660 mg/kg/day
TD50 (mouse, strain CD-1 HaM/ICR, males, in feed, site: any site (literature study), lesion: several types, types named in the paper, dosed 68 weeks, study length 90 weeks): 325 mg/kg/day
TD50 (mouse, strain CD-1 HaM/ICR, males, in feed, site: liver, lesion: several types, types named in the paper, dosed 68 weeks, study length 90 weeks): 1400 mg/kg/day (inactive)
TD50 (mouse, strain CD-1 HaM/ICR, males, in feed, site: lung, lesion: several types, types named in the paper, dosed 68 weeks, study length 90 weeks): 1160 mg/kg/day (inactive)
TD50 (rat, strain Charles River CD (Sprague-Dawley), males, in feed, site: any site (literature study), lesion: several types, types named in the paper, dosed 64 weeks, study length 68 weeks): 36.1 mg/kg/day
TD50 (rat, strain Charles River CD (Sprague-Dawley), males, in feed, site: liver, lesion: several types, types named in the paper, dosed 64 weeks, study length 68 weeks): 2960 mg/kg/day (inactive)
TD50 (rat, strain Charles River CD (Sprague-Dawley), males, in feed, site: subcutaneous tissue, lesion: several types, types named in the paper, dosed 64 weeks, study length 68 weeks): 36.7 mg/kg/day and 38.8 mg/kg/day
TD50 (rat, strain Charles River CD (Sprague-Dawley), males, in feed, site: urinary bladder, lesion: several types, types named in the paper, dosed 64 weeks, study length 68 weeks): 131 mg/kg/day
TD50 (rat, strain Fischer 344, females, in feed, site: any site (literature study), lesion: several types, types named in the paper, dosed 104 weeks, study length 104 weeks): 75.8 mg/kg/day
TD50 (rat, strain Fischer 344, females, in feed, site: mammary gland + multiple organs + spleen + urinary bladder, lesion: adenoma, NOS + fibroadenoma + angiosarcoma + fibrosarcoma + osteosarcoma + sarcoma, NOS + transitional-cell carcinoma + transitional-c, dosed 104 weeks, study length 104 weeks): 77.9 mg/kg/day
TD50 (rat, strain Fischer 344, females, in feed, site: mammary gland, lesion: adenoma, NOS + fibroadenoma, dosed 104 weeks, study length 104 weeks): 119 mg/kg/day
TD50 (rat, strain Fischer 344, females, in feed, site: mammary gland, lesion: fibroadenoma, dosed 104 weeks, study length 104 weeks): 115 mg/kg/day
TD50 (rat, strain Fischer 344, females, in feed, site: multiple organs, lesion: angiosarcoma + fibrosarcoma + osteosarcoma + sarcoma, NOS, dosed 104 weeks, study length 104 weeks): 332 mg/kg/day
TD50 (rat, strain Fischer 344, females, in feed, site: multiple organs, lesion: osteosarcoma, dosed 104 weeks, study length 104 weeks): 423 mg/kg/day
TD50 (rat, strain Fischer 344, females, in feed, site: spleen, lesion: angiosarcoma + osteosarcoma + sarcoma, NOS, dosed 104 weeks, study length 104 weeks): 337 mg/kg/day
TD50 (rat, strain Fischer 344, females, in feed, site: spleen, lesion: angiosarcoma, dosed 104 weeks, study length 104 weeks): 450 mg/kg/day
TD50 (rat, strain Fischer 344, females, in feed, site: urinary bladder, lesion: transitional-cell carcinoma + transitional-cell papilloma, dosed 104 weeks, study length 104 weeks): 175 mg/kg/day
TD50 (rat, strain Fischer 344, females, in feed, site: urinary bladder, lesion: transitional-cell carcinoma, dosed 104 weeks, study length 104 weeks): 185 mg/kg/day
TD50 (rat, strain Fischer 344, males, in feed, site: any site (literature study), lesion: several types, types named in the paper, dosed 102 weeks, study length 104 weeks): 24.4 mg/kg/day
TD50 (rat, strain Fischer 344, males, in feed, site: liver, lesion: hepatocellular adenoma + hepatocellular carcinoma + neoplastic nodule, dosed 102 weeks, study length 104 weeks): 645 mg/kg/day
TD50 (rat, strain Fischer 344, males, in feed, site: liver, lesion: several types, types named in the paper, dosed 72 weeks, study length 93 weeks): 1000 mg/kg/day
TD50 (rat, strain Fischer 344, males, in feed, site: mammary tissue, wider than the gland, lesion: fibroadenoma, dosed 72 weeks, study length 93 weeks): 149 mg/kg/day
TD50 (rat, strain Fischer 344, males, in feed, site: multiple organs + spleen + subcutaneous tissue + tunica vaginalis, lesion: angiosarcoma + fibrosarcoma + mesothelioma + osteosarcoma + sarcoma, NOS + fibroma, dosed 102 weeks, study length 104 weeks): 23.3 mg/kg/day
TD50 (rat, strain Fischer 344, males, in feed, site: multiple organs + tunica vaginalis, lesion: mesothelioma, dosed 102 weeks, study length 104 weeks): 97.4 mg/kg/day
TD50 (rat, strain Fischer 344, males, in feed, site: multiple organs, lesion: angiosarcoma + fibrosarcoma + osteosarcoma + sarcoma, NOS, dosed 102 weeks, study length 104 weeks): 93.2 mg/kg/day
TD50 (rat, strain Fischer 344, males, in feed, site: multiple organs, lesion: fibrosarcoma, dosed 102 weeks, study length 104 weeks): 184 mg/kg/day
TD50 (rat, strain Fischer 344, males, in feed, site: multiple organs, lesion: sarcoma, NOS, dosed 102 weeks, study length 104 weeks): 394 mg/kg/day
TD50 (rat, strain Fischer 344, males, in feed, site: peritoneal cavity, lesion: spindle-cell sarcoma, dosed 72 weeks, study length 93 weeks): 190 mg/kg/day
TD50 (rat, strain Fischer 344, males, in feed, site: skin, lesion: fibroma, dosed 72 weeks, study length 93 weeks): 38.7 mg/kg/day
TD50 (rat, strain Fischer 344, males, in feed, site: spleen, lesion: fibroma, dosed 72 weeks, study length 93 weeks): 167 mg/kg/day
TD50 (rat, strain Fischer 344, males, in feed, site: spleen, lesion: fibroma, dosed 102 weeks, study length 104 weeks): 134 mg/kg/day
TD50 (rat, strain Fischer 344, males, in feed, site: subcutaneous tissue, lesion: fibroma, dosed 102 weeks, study length 104 weeks): 33.3 mg/kg/day
TD50 (rat, strain Fischer 344, males, in feed, site: urinary bladder, lesion: several types, types named in the paper, dosed 72 weeks, study length 93 weeks): 474 mg/kg/day
